# In US20090298878A1, “OXIME COMPOUNDS AND THE USE THEREOF” (priority 2006, published 2009):
# pIC50: −log10 of the molar value. Counter-ions that a name gives are not always drawn.
# Biological target: T1, N-type calcium channel (NTCC) (Homo sapiens, UniProt Q00975)
# T1 construct: host or cells: IMR32 cells differentiated with dibutyryl cAMP and bromodeoxyuridine
# Experiment: FLIPR calcium mobilization assay for N-type calcium channel (differentiated IMR32 cells)
# Format: cell-based
# Conditions: about 1.0 μM or less; calcium mobilization and/or electrophysiological assay
# Description: Cell maintenance and differentiation. Unless noted otherwise, cell culture reagents were purchased from Mediatech of Hemdon, Md. IMR32 cells (American Type Culture Collection, ATCC, Manassas, Va.) were routinely cultured in growth medium consisting of minimum essential medium containing 10% fetal bovine serum (FBS, Hyclone, Logan, Utah), 100 U/mL penicillin, 100 μg/mL streptomycin, 2 mM L-glutamine, 1 mM sodium pyruvate, and 1× MEM non-essential amino acids. 80-90% confluent flasks of cells were differentiated using the following differentiation medium: Growth medium plus 1 mM dibutyryl cyclic AMP (Sigma, St. Louis, Mo.), and 2.5 μM bromodeoxyuridine (Sigma). Cells were differentiated for 8 days by replacing differentiation medium every 2-3 days.
# FLIPR Calcium Mobilization Assay for N-type Calcium Channel. One day prior to performing this assay, differentiated IMR32 cells were treated with 1× CellStripper, and seeded on poly-D-lysine-coated 96-well clear-bottom black plates (Becton Dickinson, Franklin Lakes, N.J.) at 200,000 cells/well. On the day of the assay, the cell plates were washed with IMR32 buffer (127 mM NaCl, 1 mM KCl, 2 mM MgCl2, 700 μM NaH2PO4, 5 mM CaCl2, 5 mM NaHCO3, 8 mM HEPES, 10 mM glucose, pH 7.4), then pre-stimulated with KCl and loaded as follows: 0.05 mL of IMR32 buffer, 0.05 mL of each compound tested diluted in IMR32 buffer containing 20 μM nitrendipine (Sigma), and 0.1 mL KCl dissolved in IMR32 buffer, plus Fluo-4 were added (3 μM final concentration, Molecular Probes, Eugene, Oreg.). Final test compound concentrations ranged from about 846 pM to about 17 μM, final nitrendipine concentration was 5 μM, and final KCl concentration was 90 mM. After 1 hour, the cells were washed twice with 0.05 mL of each compound tested in nitrendipine-containing IMR32 buffer (no KCl or Fluo-4), and then replaced with 0.1 mL of each compound tested in nitrendipine-containing IMR32 buffer. Plates were then transferred to a Fluorimetric imaging Plate Reader (FLIPR^96, Molecular Devices, Inc., Sunnyvale, Calif.) for assay. The FLIPR measured basal Fluo-4 fluorescence for 315 seconds (i.e., 5 minutes and 15 seconds), then added 0.1 mL KCl agonist dissolved in IMR32 buffer and measured fluorescence for another 45 seconds. Final test compound concentrations on the cells after FLIPR read ranged from about 846 pM to about 17 μM, final nitrendipine concentration was 5 μM, and final KCl concentration was 90 mM. Data were collected over the entire time course and analyzed using Excel, Graph Pad Prism (version 3.02, Graph Pad, San Diego, Calif.), or an in-house non-linear regression analysis software.
# T1 sequence (Q00975 whole entry): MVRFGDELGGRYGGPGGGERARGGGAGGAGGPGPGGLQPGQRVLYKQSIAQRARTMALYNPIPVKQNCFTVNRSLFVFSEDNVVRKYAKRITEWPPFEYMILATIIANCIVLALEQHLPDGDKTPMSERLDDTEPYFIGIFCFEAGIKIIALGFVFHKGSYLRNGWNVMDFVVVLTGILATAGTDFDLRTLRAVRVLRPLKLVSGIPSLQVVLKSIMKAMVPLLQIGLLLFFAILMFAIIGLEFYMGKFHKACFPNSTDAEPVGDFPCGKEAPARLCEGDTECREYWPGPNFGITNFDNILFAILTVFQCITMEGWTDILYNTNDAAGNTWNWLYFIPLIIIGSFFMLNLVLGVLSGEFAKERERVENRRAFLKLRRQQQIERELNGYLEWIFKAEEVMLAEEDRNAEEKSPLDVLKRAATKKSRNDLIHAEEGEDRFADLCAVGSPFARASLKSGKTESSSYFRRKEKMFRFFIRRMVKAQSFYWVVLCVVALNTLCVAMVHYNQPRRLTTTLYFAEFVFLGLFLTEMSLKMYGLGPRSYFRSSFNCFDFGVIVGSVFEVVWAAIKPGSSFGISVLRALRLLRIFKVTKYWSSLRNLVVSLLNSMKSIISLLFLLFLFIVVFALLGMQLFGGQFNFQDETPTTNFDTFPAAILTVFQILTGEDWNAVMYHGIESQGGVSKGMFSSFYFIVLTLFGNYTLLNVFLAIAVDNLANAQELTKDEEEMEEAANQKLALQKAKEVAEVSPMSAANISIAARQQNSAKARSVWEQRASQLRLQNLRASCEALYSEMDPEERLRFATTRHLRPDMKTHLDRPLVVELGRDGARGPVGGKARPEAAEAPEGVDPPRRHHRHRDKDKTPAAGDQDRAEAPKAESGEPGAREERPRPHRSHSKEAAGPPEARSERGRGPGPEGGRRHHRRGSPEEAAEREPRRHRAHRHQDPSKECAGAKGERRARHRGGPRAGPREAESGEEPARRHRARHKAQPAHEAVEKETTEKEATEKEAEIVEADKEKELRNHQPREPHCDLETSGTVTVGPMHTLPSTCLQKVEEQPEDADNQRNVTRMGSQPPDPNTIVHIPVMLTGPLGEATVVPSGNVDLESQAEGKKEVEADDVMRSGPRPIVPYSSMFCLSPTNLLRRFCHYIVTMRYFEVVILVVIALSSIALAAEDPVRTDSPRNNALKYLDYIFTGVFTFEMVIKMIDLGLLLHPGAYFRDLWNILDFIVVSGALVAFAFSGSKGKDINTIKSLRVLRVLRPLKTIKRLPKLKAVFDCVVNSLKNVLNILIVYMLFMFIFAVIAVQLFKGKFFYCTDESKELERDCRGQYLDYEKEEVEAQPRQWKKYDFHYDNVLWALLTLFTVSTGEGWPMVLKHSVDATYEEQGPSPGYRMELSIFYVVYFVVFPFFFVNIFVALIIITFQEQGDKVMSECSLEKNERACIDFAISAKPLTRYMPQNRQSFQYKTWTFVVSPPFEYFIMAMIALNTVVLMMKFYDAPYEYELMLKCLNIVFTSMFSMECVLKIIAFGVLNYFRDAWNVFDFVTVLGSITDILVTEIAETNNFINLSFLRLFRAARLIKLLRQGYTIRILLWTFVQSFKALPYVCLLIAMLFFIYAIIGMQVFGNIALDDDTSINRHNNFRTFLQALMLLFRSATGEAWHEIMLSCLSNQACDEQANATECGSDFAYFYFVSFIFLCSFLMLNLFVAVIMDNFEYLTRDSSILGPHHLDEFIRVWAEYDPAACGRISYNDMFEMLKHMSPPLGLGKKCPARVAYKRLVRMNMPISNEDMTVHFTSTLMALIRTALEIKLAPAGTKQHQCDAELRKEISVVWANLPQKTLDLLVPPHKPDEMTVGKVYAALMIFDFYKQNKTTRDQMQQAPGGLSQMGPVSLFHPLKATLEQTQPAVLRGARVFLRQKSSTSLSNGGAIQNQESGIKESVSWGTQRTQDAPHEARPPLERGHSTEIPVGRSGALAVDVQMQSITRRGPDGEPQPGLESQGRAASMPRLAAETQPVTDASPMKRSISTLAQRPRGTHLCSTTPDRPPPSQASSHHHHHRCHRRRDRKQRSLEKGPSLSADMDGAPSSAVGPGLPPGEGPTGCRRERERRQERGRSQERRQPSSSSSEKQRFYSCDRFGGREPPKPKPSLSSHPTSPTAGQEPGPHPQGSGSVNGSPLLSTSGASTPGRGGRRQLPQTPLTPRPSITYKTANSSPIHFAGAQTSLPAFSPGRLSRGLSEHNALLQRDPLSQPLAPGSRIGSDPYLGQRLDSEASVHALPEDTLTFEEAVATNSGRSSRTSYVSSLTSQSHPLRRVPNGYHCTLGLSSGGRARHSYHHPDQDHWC
row,pIC50,SMILES
1,≥ 6.00,"O=S(=O)(c1cccc(C(F)(F)F)c1)N1CCC(=NOCCC2CCCCC2)CC1 [Example 294, 1-(3-(Trifluoromethyl)phenylsulfonyl)piperidin-4-one O-2-cyclohexylethyl oxime]"
2,≥ 6.00,"O=S(=O)(c1cccc(C(F)(F)F)c1)N1CCC(=NOC/C=C/c2ccccc2)CC1 [Example 368, 1-(3-(Trifluoromethyl)phenylsulfonyl)piperidin-4-one O-cinnamyl oxime]"
3,≥ 6.00,"COC(=O)c1cccc(S(=O)(=O)N2CCC(=NOC(c3ccc(F)cc3)c3ccc(F)cc3)CC2)c1 [Example 286, Methyl 3-(4-(bis(4-fluorophenyl)methoxyimino)piperidin-1-ylsulfonyl)benzoate]"
4,≥ 6.00,"O=c1ccc(CON=C2CCN(S(=O)(=O)c3ccc(OC(F)(F)F)cc3)CC2)cn1-c1ccc(F)cc1 [Example 314, 1-(4-Fluorophenyl)-5-((1-(4-(trifluoromethoxy)phenylsulfonyl)piperidin-4-ylideneaminooxy)methyl)pyridin-2(1H)-one]"
5,≥ 6.00,"O=S(=O)(c1ccc(OC(F)(F)F)cc1)N1CCC(=NOC(c2cccc(C(F)(F)F)c2)C2CC2)CC1 (centres unmarked) [Example 307, 1-(4-(Trifluoromethoxy)phenylsulfonyl)piperidin-4-one O-cyclopropyl(3-(trifluoromethyl)phenyl)methyl oxime]"
6,≥ 6.00,"N#Cc1cccc(C(ON=C2CCN(S(=O)(=O)c3ccc(C#N)nc3)CC2)C2CC2)c1 (centres unmarked) [Example 278, 5-(4-((3-Cyanophenyl)(cyclopropyl)methoxyimino)piperidin-1-ylsulfonyl)picolinonitrile]"
7,≥ 6.00,"O=S(=O)(c1ccccn1)N1CCC(=NOC(c2ccc(F)cc2)c2ccc(F)cc2)CC1 [Example 288, 1-(Pyridin-2-ylsulfonyl)piperidin-4-one O-bis(4-fluorophenyl)methyl oxime]"
8,≥ 6.00,"COc1ccc(S(=O)(=O)N2CCC(=NOC(c3ccc(F)cc3)c3ccc(F)cc3)CC2)cc1OC [Example 268, 1-(3,4-Dimethoxyphenylsulfonyl)piperidin-4-one O-bis(4-fluorophenyl)methyl oxime]"
9,≥ 6.00,"O=S(=O)(c1cc(F)cc(F)c1)N1CCC(=NOC(c2ccc(F)cc2)c2ccc(F)cc2)CC1 [Example 244, 1-(3,5-Difluorophenylsulfonyl)piperidin-4-one O-bis(4-fluorophenyl)methyl oxime]"
10,≥ 6.00,"CN1CCOc2cc(S(=O)(=O)N3CCC(=NOC(c4ccc(F)cc4)c4ccc(F)cc4)CC3)ccc21 [Example 237, 1-(4-Methyl-3,4-dihydro-2H-benzo[b][1,4]oxazin-7-ylsulfonyl)piperidin-4-one O-bis(4-fluorophenyl)methyl oxime]"
11,≥ 6.00,"N#Cc1cccc(C(ON=C2CCN(S(=O)(=O)c3ccc(NC4CCCC4)nc3)CC2)C2CC2)c1 (centres unmarked) [Example 275, 3-((1-(6-(Cyclopentylamino)pyridin-3-ylsulfonyl)piperidin-4-ylideneaminooxy)(cyclopropyl)methyl)benzonitrile]"
12,≥ 6.00,"N#Cc1cccc(S(=O)(=O)N2CCC(=NOCc3cccc(C(F)(F)F)c3)CC2)c1 [Example 284, 3-(4-(3-(Trifluoromethyl)benzyloxyimino)piperidin-1-ylsulfonyl)benzonitrile]"
13,≥ 6.00,"N#Cc1cc(CON=C2CCN(C(=O)CCC(c3ccc(F)cc3)c3ccc(F)cc3)CC2)ccc1F [Example 181, 5-((1-(4,4-Bis(4-fluorophenyl)butanoyl)piperidin-4-ylideneaminooxy)methyl)-2-fluorobenzonitrile]"
14,≥ 6.00,"O=S(=O)(c1cccc(C(F)(F)F)c1)N1CCC(=NOC(c2ccc(F)cc2)c2ccc(F)cc2)CC1 [Example 285, 1-(3-(Trifluoromethyl)phenylsulfonyl)piperidin-4-one O-bis(4-fluorophenyl)methyl oxime]"
15,≥ 6.00,"N#Cc1cccc(C(ON=C2CCN(S(=O)(=O)c3ccc(NC4CC4)nc3)CC2)C2CC2)c1 (centres unmarked) [Example 274, 3-(Cyclopropyl(1-(6-(cyclopropylamino)pyridin-3-ylsulfonyl)piperidin-4-ylideneaminooxy)methyl)benzonitrile]"

# More lines, now with the values behind:
row,SMILES,pIC50
1,"CCCCc1ccc(S(=O)(=O)N2CCC(=NOCc3cc(Cl)ccn3)CC2)cc1 [Example 73, 1-(4-Butylbenzenesulfonyl)piperidin-4-one O-(4-chloropyridin-2-ylmethyl)oxime]",≥ 6.00
2,"CCCCc1ccc(S(=O)(=O)N2CCC(=NOCC3CCCCC3)CC2)cc1 [Example 82, 1-(4-Butylbenzenesulfonyl)piperidin-4-one O-cyclohexylmethyloxime]",≥ 6.00
3,"CCCCc1ccc(S(=O)(=O)N2CCC(=NOCc3cccnc3)CC2)cc1 [Example 70, 1-(4-Butylbenzenesulfonyl)piperidin-4-one O-pyridin-3-ylmethyloxime]",≥ 6.00
4,"O=C(CCN1CCC(c2ccccc2)CC1)N1CCC(=NOCc2cccc(C(F)(F)F)c2)CC1 [Example 47, 1-[3-(4-Phenylpiperidin-1-ylpropionyl]piperidin-4-one O-(3-trifluoromethylbenzyl)oxime hydrochloride]",≥ 6.00
5,"CCCCc1ccc(S(=O)(=O)N2CCC(=NOCc3ccnc(Cl)c3)CC2)cc1 [Example 69, 1-(4-Butylbenzenesulfonyl)piperidin-4-one O-(2-chloropyridin-4-ylmethyl)oxime]",≥ 6.00
6,"CCCCc1ccc(S(=O)(=O)N2CCC(=NOCc3ccccc3C(F)(F)F)CC2)cc1 [Example 78, 1-(4-Butylbenzenesulfonyl)piperidin-4-one O-(2-trifluoromethylbenzyl)oxime]",≥ 6.00
7,"N#Cc1ccc(S(=O)(=O)N2CCC(=NOCc3cccc(C(F)(F)F)c3)CC2)cc1 [Example 53, 4-[4-(3-Trifluoromethylbenzyloxyimino)piperidine-1-sulfonyl]benzonitrile]",≥ 6.00
8,"N#Cc1ccnc(CON=C2CCN(S(=O)(=O)c3ccc(OC(F)(F)F)cc3)CC2)c1 [Example 178, 2-((1-(4-(trifluoromethoxy)phenylsulfonyl)piperidin-4-ylideneaminooxy)methyl)isonicotinonitrile]",≥ 6.00
9,"O=[N+]([O-])c1ccc(CON=C2CCN(S(=O)(=O)c3ccc(OC(F)(F)F)cc3)CC2)cc1 [Example 134, 1-(4-Trifluoromethoxybenzenesulfonyl)piperidin-4-one O-(4-nitrobenzyl)oxime]",≥ 6.00
10,"CCCCc1ccc(S(=O)(=O)N2CCC(=NOCc3ccccc3)CC2)cc1 [Example 67, 1-(4-Butylbenzenesulfonyl)piperidin-4-one O-benzyloxime]",≥ 6.00
11,"CN(C)c1cccc(CON=C2CCN(S(=O)(=O)c3ccc(OC(F)(F)F)cc3)CC2)c1 [Example 128, 1-(4-Trifluoromethoxybenzenesulfonyl)piperidin-4-one O-(3-dimethylaminobenzyl)oxime]",≥ 6.00
12,"COc1ncccc1CON=C1CCN(S(=O)(=O)c2ccc(OC(F)(F)F)cc2)CC1 [Example 111, 1-(4-Trifluoromethoxybenzenesulfonyl)piperidin-4-one O-(2-methoxypyridin-3-ylmethyl)oxime]",≥ 6.00
13,"CCCCc1ccc(S(=O)(=O)N2CCC(=NOC(C)c3cccc(C(F)(F)F)c3)CC2)cc1 (centres unmarked) [Example 74, 1-(4-Butylbenzenesulfonyl)piperidin-4-one O-[1-(3-trifluoromethylphenyl)ethyl]oxime]",≥ 6.00
14,"O=C(CCN1CCC(Cc2ccccc2)CC1)N1CCC(=NOCc2cccc(C(F)(F)F)c2)CC1 [Example 48, 1-[3-(4-Benzylpiperidin-1-yl)propionyl]piperidin-4-one O-(3-trifluoromethylbenzyl)oxime hydrochloride]",≥ 6.00
15,"COc1cccc(CON=C2CCN(S(=O)(=O)c3ccc(OC(F)(F)F)cc3)CC2)n1 [Example 110, 1-(4-Trifluoromethoxybenzenesulfonyl)piperidin-4-one O-(6-methoxypyridin-2-ylmethyl)oxime]",≥ 6.00
16,"N#Cc1ccccc1CON=C1CCN(S(=O)(=O)c2ccc(OC(F)(F)F)cc2)CC1 [Example 120, 2-[1-(4-Trifluoromethoxybenzenesulfonyl)piperidin-4-ylideneaminooxymethyl]benzonitrile]",≥ 6.00

# Same assay, conditions: calcium mobilization in vitro assay, N-type calcium channel blockers
row,pIC50,SMILES
1,5.96,"O=C(CC(=O)N1CCC(=NOC(c2ccc(F)cc2)c2ccc(F)cc2)CC1)Nc1ccc(F)cc1F [Example 227, 3-(4-(Bis(4-fluorophenyl)methoxyimino)piperidin-1-yl)-N-(2,4-difluorophenyl)-3-oxopropanamide]"
